Experimental data reported in patent US20160326143A1, “COMPOUNDS AND USES” (AstraZeneca AB, priority 2015, published 2016).

biological target: human recombinant purified LTC4 synthase (Homo sapiens (Human), UniProt Q16873); experiment: not given; conditions: read-out: hLTC4 synthase IC50; Test B (Examples 62-65); substrate LTA4 methyl ester, product detected by LCMSMS; median of at least two determinations
Sequence (Q16873 whole entry): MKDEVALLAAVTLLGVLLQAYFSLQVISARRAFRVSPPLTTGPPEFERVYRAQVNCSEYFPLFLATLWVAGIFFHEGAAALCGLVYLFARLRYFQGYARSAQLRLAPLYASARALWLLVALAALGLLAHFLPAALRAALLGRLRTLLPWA

IC50 [nM]	Compound
0.248	COc1nc(N(CC(C)(C)F)c2cc(C(F)(F)F)ccc2F)cnc1C(=O)[C@H]1C[C@@H]1C(=O)O [Example 63, (1S,2S)-2-[(5-{(2-Fluoro-2-methylpropyl)[2-fluoro-5-(trifluoromethyl)phenyl]amino}-3-methoxypyrazin-2-yl)carbonyl]cyclopropanecarboxylic acid]
0.658	COc1cc(N(CC(C)C)c2cc(C(F)(F)F)ccc2F)cnc1C(=O)[C@H]1C[C@@H]1C(=O)O [Example 65, (1S,2S)-2-[(5-{[2-Fluoro-5-(trifluoromethyl)phenyl](2-methylpropyl)amino}-3-methoxypyridin-2-yl)carbonyl]cyclopropanecarboxylic acid]

biological target: Recombinant human LTC4 synthase (Homo sapiens (Human), UniProt Q16873); experiment: In vitro hLTC4 synthase enzyme assay (Test A); assay type: biochemical; conditions: Test A (Examples 1-61); substrate LTA4, LTC4 detected by HTRF; median of at least two determinations
Procedure: In Vitro hLTC4 Synthase Enzyme Assay (Test A)
Recombinant human LTC4 synthase is expressed in Piccia pastoralis and the purified enzyme is dissolved in 25 mM tris-buffer pH 7.8 supplemented with 0.1 mM glutathione (GSH) and stored at −80° C.
The buffer is used as background. Runs are performed in duplicates.
The reaction is stopped after 1 min by addition of double the reaction volume of a stop solution (MeOH:H2O:acetic acid 70:30:1).
After 15 fold dilution in PBS, LTC4 formation is detected with LTC4 HTRF kit (Cisbio, cat. No 64LC4PEC) and a fluorescence reader. Typically 6 μL of sample is mixed with 3 μL of each of the HTRF reagents d2 and k and analyzed as described in the kit manual.

Sequence of Recombinant human LTC4 synthase (Q16873 whole entry): as above

IC50 [nM]	Compound
46	COc1cc(N(CC2CC2)c2cccc3ccccc23)ccc1C(=O)C1CC1C(=O)O (stereo not shown) [Example 48, 2-(4-((Cyclopropylmethyl)(naphthalen-1-yl)amino)-2-methoxybenzoyl)cyclopropanecarboxylic acid]
65	COc1cc(N(CC2CC2)c2ccc(Cl)cc2)ccc1C(=O)C1CC1C(=O)O (stereo not shown) [Example 49, 2-(4-((4-Chlorophenyl)(cyclopropylmethyl)amino)-2-methoxybenzoyl)cyclopropanecarboxylic acid]
75	COc1cc(N(CC2CC2)c2ccc(C)c(C)c2)ccc1C(=O)C1CC1C(=O)O (stereo not shown) [Example 50, 2-(4-((Cyclopropylmethyl)(3,4-dimethylphenyl)amino)-2-methoxybenzoyl)cyclopropanecarboxylic acid]
68	COc1cc(N(Cc2ccc(Cl)cc2)CC2CC2)ccc1C(=O)C1CC1C(=O)O (stereo not shown) [Example 51, 2-(4-((4-Chlorobenzyl)(cyclopropylmethyl)amino)-2-methoxybenzoyl)cyclopropanecarboxylic acid]
359	COc1cc(N(CC2CC2)c2ccc(C)c3ncccc23)ccc1C(=O)C1CC1C(=O)O (stereo not shown) [Example 52, 2-(4-((Cyclopropylmethyl)(8-methylquinolin-5-yl)amino)-2-methoxybenzoyl)cyclopropanecarboxylic acid]
152	COc1cc(N(CC2CC2)c2ccc(C(F)(F)F)c3cccnc23)ccc1C(=O)C1CC1C(=O)O (stereo not shown) [Example 53, 2-(4-((Cyclopropylmethyl)(5-(trifluoromethyl)quinolin-8-yl)amino)-2-methoxybenzoyl)cyclopropanecarboxylic acid]
424	O=C(O)C1CC1C(=O)c1ccc(N(CC2CC2)c2ccc(Cl)cc2)cn1 (stereo not shown) [Example 54, 2-(5-((4-Chlorophenyl)(cyclopropylmethyl)amino)picolinoyl)cyclopropanecarboxylic acid]
636	O=C(O)C1CC1C(=O)c1ccc(N(Cc2ccc(Cl)cc2)CC2CC2)cn1 (stereo not shown) [Example 55, 2-(5-((4-Chlorobenzyl)(cyclopropylmethyl)amino)picolinoyl)cyclopropanecarboxylic acid]
17	COc1nc(C(=O)C2CC2C(=O)O)ncc1N(CC1CC1)c1ccc(Cl)c2ccccc12 (stereo not shown) [Example 56, 2-(5-((4-Chloronaphthalen-1-yl)(cyclopropylmethyl)amino)-4-methoxypyrimidine-2-carbonyl)cyclopropanecarboxylic acid]
50	COc1nc(C(=O)C2CC2C(=O)O)ncc1N(CC1CC1)c1cccc2ccccc12 (stereo not shown) [Example 57, 2-(5-((Cyclopropylmethyl)(naphthalen-1-yl)amino)-4-methoxypyrimidine-2-carbonyl)cyclopropanecarboxylic acid]
19	COc1nc(C(=O)C2CC2C(=O)O)ncc1N(CC1CC1)c1ccc(F)c2ccccc12 (stereo not shown) [Example 58, 2-(5-((Cyclopropylmethyl)(4-fluoronaphthalen-1-yl)amino)-4-methoxypyrimidine-2-carbonyl)cyclopropanecarboxylic acid]
18	COc1nc(C(=O)C2CC2C(=O)O)ncc1N(CC1CC1)c1ccc(C)c2ccccc12 (stereo not shown) [Example 59, 2-(5-((Cyclopropylmethyl)(4-methylnaphthalen-1-yl)amino)-4-methoxypyrimidine-2-carbonyl)cyclopropanecarboxylic acid]
96	COc1cc(N(CC2CC2)c2cccc3ccccc23)cnc1C(=O)C1CC1c1nnn[nH]1 (stereo not shown) [Example 60, (2-(1H-Tetrazol-5-yl)cyclopropyl)(5-((cyclopropylmethyl)(naphthalen-1-yl)amino)-3-methoxypyridin-2-yl)methanone]
39	COc1cc(N(CC2CC2)c2ccc(F)c3ccccc23)cnc1C(=O)C1CC1c1nnn[nH]1 (stereo not shown) [Example 61, (2-(1H-Tetrazol-5-yl)cyclopropyl)(5-((cyclopropylmethyl)(4-fluoronaphthalen-1-yl)amino)-3-methoxypyridin-2-yl)methanone]
